We go through eight molecules from patent US20060094786A1, “Treating syndrome X with substituted tetralins and indanes” (priority 2002, published 2006).

Experiment [1] deals with T1, PPARα (Rattus norvegicus, UniProt P37230).
T1 construct: H4IIE rat hepatoma cell line was obtained from ATCC; host or cells: H4IIE rat hepatoma cells
T1 sequence (P37230 1-468): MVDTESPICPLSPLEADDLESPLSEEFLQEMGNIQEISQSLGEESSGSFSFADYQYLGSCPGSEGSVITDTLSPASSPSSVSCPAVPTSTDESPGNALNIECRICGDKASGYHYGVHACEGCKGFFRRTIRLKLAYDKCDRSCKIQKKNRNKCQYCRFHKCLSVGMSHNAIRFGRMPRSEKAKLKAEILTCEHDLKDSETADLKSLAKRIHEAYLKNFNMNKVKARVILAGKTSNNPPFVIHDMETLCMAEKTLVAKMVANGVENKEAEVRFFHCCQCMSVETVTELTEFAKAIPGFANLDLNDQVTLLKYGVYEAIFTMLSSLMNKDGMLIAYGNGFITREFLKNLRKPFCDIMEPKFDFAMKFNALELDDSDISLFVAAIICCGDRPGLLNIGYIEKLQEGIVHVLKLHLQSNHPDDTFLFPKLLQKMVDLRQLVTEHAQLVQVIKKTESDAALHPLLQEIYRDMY
As to the kind of experiment: HD bDNA Assay (HD gene induction, H4IIE rat hepatoma cell line). The conditions noted are these: assay not named, values equal the PPARα column. It counts as cell-based. How it is done: H4IIE rat hepatoma cell line was obtained from ATCC. Cells were cultured in 175 cm^2 tissue culture flask or seeded in 96-well plate with (high serum content, 10% fetal bovine serum and 10% calf serum) culture medium and maintained at 37° C. and 5% CO2 throughout study. Twenty-four hours after the initial seeding of the 96-well plate by hand (approximate 100,000/well), the HD gene induction assay was initiated. Media was removed and replaced with 100 ul of low serum culture media (5% charcoal/dextran treated calf serum) containing vehicle (DMSO) or test compounds or standard. Cells returned to incubator for 24 hours culture. At the termination of the challenge, 50 ul lysis buffer with HD gene specific CE, LE, BL probes was added directly into each well to initiate the is bDNA HD mRNA assay. The branched DNA assay was performed according to the manufacturer's protocol (Bayer Diagnostics; Emeryville. Calif.). At the end of the assay, the luminescence was quantitated in Dynex MLX microtiter plate luminometer. EC50's were determined by non-linear regression with a sigmoidal fit utilizing Graphpad Prism.

The target in experiment [2] is T2, PPARγ (Homo sapiens, UniProt P37231).
T2 construct: Following the challenge of the preadipocytes, cells may be lysed with lysis buffer; endogenous in cells; host or cells: preadipocytes
T2 sequence (P37231 1-505): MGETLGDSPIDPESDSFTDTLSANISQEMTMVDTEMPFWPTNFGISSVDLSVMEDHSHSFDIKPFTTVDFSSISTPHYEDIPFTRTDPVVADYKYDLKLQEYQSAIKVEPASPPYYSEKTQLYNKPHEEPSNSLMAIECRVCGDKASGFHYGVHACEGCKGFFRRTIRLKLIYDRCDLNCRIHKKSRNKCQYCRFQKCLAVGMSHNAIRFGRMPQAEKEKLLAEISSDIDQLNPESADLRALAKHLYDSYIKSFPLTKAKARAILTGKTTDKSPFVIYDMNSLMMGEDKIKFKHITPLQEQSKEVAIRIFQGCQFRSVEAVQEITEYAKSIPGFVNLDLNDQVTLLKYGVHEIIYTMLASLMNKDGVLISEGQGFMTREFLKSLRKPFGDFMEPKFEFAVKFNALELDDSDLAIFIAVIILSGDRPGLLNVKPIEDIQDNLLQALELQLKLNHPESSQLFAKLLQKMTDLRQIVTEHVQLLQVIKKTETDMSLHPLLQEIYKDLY
As to the kind of experiment: aP2 Assay for PPAR Gamma Agonists (bDNA aP2 mRNA, preadipocytes). It counts as cell-based. The note with it: for PPARγ FI: fold induction, unbracketed values, PPARγ standard FI = 70.3. An excerpt: aP2 Assay for PPAR Gamma Agonists
The procedure is described in detail in Burris et al., Molecular Endocrinology 1999, 13:410, which is hereby incorporated by reference in its entirety, and aP2 assay results of agonist intrinsic activity may be presented as fold increase over vehicle in induction of aP2 mRNA production.
Twenty-four hours after the initial seeding of the 96-well plates by hand (around 20,000/well), the differentiation assay may be initiated. Medium may be removed and replaced with 150 μl of differentiation medium containing vehicle (DMSO) or test compounds. Cells may be returned to incubator for 24 hours culture. At the termination of the challenge, medium may be removed and 100 ul of lysis buffer may be added to initiate the bDNA aP2 mRNA assay. The branched DNA assay may be performed according to the manufacturer's protocol (Bayer Diagnostics; Emeryville, Calif.). Result may be expressed as the fold increase of aP2 mRNA production activated over vehicle controls. EC50's and Emax may be determined by non-linear regression with a sigmoidal fit curve.
Following the challenge of the preadipocytes, cells may be lysed with lysis buffer (Bayer Diagnostics) containing the aP2 oligonucleotides. After a 15 minute incubation at 53° C. or 30 minutes at 37° C. incubator, 70 ul of the lysis buffer from each well may be added to a corresponding capture well (preincubated with 70 ul of blocking buffer (Bayer Diagnostics)). The capture plate may be incubated overnight at 53° C. in a plate incubator (Bayer Diagnostics). After this incubation, the bDNA and labeled probes may be annealed as directed by the manufacturer. Following a 30-minute incubation with the luminescent alkaline phosphatase substrate, dioxitane, the luminescence may be quantitated in a Dynex MLX microtiter plate luminometer. Oligonucleotide probes designed to anneal to the aP2 mRNA and function in the bDNA mRNA detection system are designed with ProbeDesigner software (Bayer Diagnostics). This software package analyzes a target sequence of interest with a series of algorithms in order to determine which regions of the sequence can perform as locations for capture, label, or spacer probe annealing. The sequences of the oligonucleotides are as follows: […]

The nature of experiment [3]: Comparison of activity of (R) and (S) isomer (test not stated). The conditions noted are these: chiral center on C-2 of the indane ring. An excerpt: Unless otherwise mentioned or indicated, the chemical designation of compounds denotes the mixture of all possible stereochemically isomeric forms, said mixtures containing all diastereomers and enantiomers of the basic molecular structure. More in particular, stereogenic centers may have the (R)- or (S)-configuration; substituents on bivalent cyclic saturated radicals may have either the cis- or trans-configuration. The invention encompasses stereochemically isomeric forms including diastereoisomers, as well as mixtures thereof in any proportion of the disclosed compounds. The disclosed compounds may also exist in their tautomeric forms. Such forms although not explicitly indicated in the above and following formulae are intended to be included within the scope of the present invention. For example, in compound 2.1 or Example 3, there is a chiral center on the C-2 of the indane ring.

Experiment [4] concerns the target T3, PPARδ (Homo sapiens, UniProt Q03181).
T3 sequence (Q03181 171-441 limits assumed): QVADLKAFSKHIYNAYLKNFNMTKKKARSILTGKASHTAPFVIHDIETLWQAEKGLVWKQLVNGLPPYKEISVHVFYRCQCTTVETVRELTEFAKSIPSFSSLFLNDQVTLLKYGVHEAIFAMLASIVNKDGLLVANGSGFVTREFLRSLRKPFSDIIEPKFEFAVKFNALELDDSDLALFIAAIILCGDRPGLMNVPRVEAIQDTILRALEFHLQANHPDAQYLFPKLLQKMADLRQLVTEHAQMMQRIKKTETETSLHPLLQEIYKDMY
As to the kind of experiment: Transfection Assay for PPARδ Receptors (PPAR-Gal4 receptor / Gal4-Luciferase Reporter, HEK293 cells). The note with it: for PPARδ FI: fold induction, unbracketed values, PPARδ standard FI = 36.1. It counts as cell-based. How it is done:
Transfection Assay for PPARδ Receptors
HEK293 cells were grown in DMEM/F-12 Media supplemented with 10% FBS and glutamine (GIBCOBRL). The cells were co-transfected with DNA for PPAR-Gal4 receptor and Gal4-Luciferase Reporter using the DMRIE-C Reagent. On the following day, the DNA-containing medium were replaced with 5% Charcoal treated FBS growth medium. After six hours, cells were seeded in 96 well plate and incubated at 37° C. in CO2 incubator overnight. Cells were challenged by test compounds and incubated for 24 hours at 37° C. in 5% CO2 incubator. Luciferase activity was assayed using the Steady-Glo Luciferase Assay Kit from Promega. DMRIE-C Reagent was purchased from GIBCO Cat. No. 10459-014. OPTI-MEM I Reduced Serum Medium was purchased from GIBCO Cat. No. 31985. Steady-Glo Luciferase Assay Kit was obtained from Promega Part# E254B.
A general note: Reporter assays use an easily measured gene product as a stand-in for the process of interest.

As for `CCN(C(=O)Nc1ccc(OC(F)(F)F)cc1)[C@@H]1Cc2ccc(SC(C)(C)C(=O)O)cc2C1` [Example 3, (R)-2-{2-[1-Ethyl-3-(4-trifluoromethoxyphenyl)ureido]indan-5-ylsulfanyl}-2-methylpropionic acid], the values for the concentration for a half-maximal effect (EC50) in experiment [1], in experiment [2] (bracketed values) and in experiment [4] (bracketed values) were 8 nM, above 10 µM and above 10 µM, respectively. Further, the “activity of the (R) isomer relative to the (S) isomer” value in experiment [3] is recorded as “more active than the (S) isomer”.

On to `CCN(C(=O)Nc1ccc(C(C)C)cc1)C1Cc2ccc(SC(C)(C)C(=O)O)cc2C1` (stereo not drawn) [Example 6, 2-{2-[1-Ethyl-3-(4-isopropylphenyl)ureido]indan-5-ylsulfanyl}-2-methylpropionic acid], for which, in experiment [2], the “PPARγ FI” value was found to be 1.9. The “PPARδ FI” value in experiment [4] stood at 3.6.

With `CCN(C(=O)Nc1ccc(N(C)C)cc1)C1Cc2ccc(SC(C)(C)C(=O)O)cc2C1` (stereo not drawn) [Example 7, 2-{2-[3-(4-Dimethylaminophenyl)-1-ethylureido]indan-5-ylsulfanyl}-2-methylpropionic acid], the “PPARγ FI” value in experiment [2] is 0. In addition, the “PPARδ FI” value in experiment [4] was 0.8.

With `CCCCCN(C(=O)Nc1ccc(OC(F)(F)F)cc1)C1Cc2ccc(SC(C)(C)C(=O)O)cc2C1` (stereo not drawn) [Example 8, 2-Methyl-2-{2-[1-pentyl-3-(4-trifluoromethoxyphenyl)ureido]indan-5-ylsulfanyl}-2-methylpropionic acid], the “PPARγ FI” value in experiment [2] is recorded as 1.9. Further, the “PPARδ FI” value in experiment [4] is 5.9.

As to `CCCCCN(C(=O)Nc1ccc(N(C)C)cc1)C1Cc2ccc(SC(C)(C)C(=O)O)cc2C1` (stereo not drawn) [Example 9, 2-{2-[3-(4-Dimethylaminophenyl)-1-pentylureido]indan-5-ylsulfanyl}-2-methylpropionic acid], in experiment [2], the “PPARγ FI” value worked out at 2.9. For the same molecule, in experiment [4], the “PPARδ FI” value was found to be 1.0.

Regarding `CCCCCN(C(=O)Nc1ccc(C(C)C)cc1)C1Cc2ccc(SC(C)(C)C(=O)O)cc2C1` (stereo not drawn) [Example 10, 2-{2-[3-(4-Isopropylphenyl)-1-(pentyl)ureido]indan-5-ylsulfanyl}-2-methylpropionic acid], in experiment [1], the half-maximal effective concentration (EC50) amounted to 165 nM. Further, the “PPARγ FI” value in experiment [2] came out at 5.1.

In experiment [1], `CCCCCN(C(=O)Nc1ccc(C(C)(C)C)cc1)C1Cc2ccc(SC(C)(C)C(=O)O)cc2C1` (stereo not drawn) [Example 11, 2-{2-[3-(4-tert-butylphenyl)-1-(pentyl)ureido]indan-5-ylsulfanyl}-2-methylpropionic acid] yielded an EC50 of 173 nM. Besides, in experiment [2], the “PPARγ FI” value came out at 6.1.

For the molecule `CCCCCCN(C(=O)Nc1ccc(OC(F)(F)F)cc1)C1Cc2ccc(SC(C)(C)C(=O)O)cc2C1` (stereo not drawn) [Example 14, 2-Methyl-2-{2-[1-hexyl-3-(4-trifluoromethoxyphenyl)ureido]indan-5-ylsulfanyl}propionic acid], the “PPARγ FI” value in experiment [2] stood at 0.3. In experiment [4], the “PPARδ FI” value was 1.3.

In general, EC50 refers to the concentration needed to bring the measured effect to its halfway point. The low end stands for an effect from little substance, the high end for a need for much substance.
